Assay results taken from the supplement of paper PMC11061612.

Legend:
Test in all cases: Bliss excess, mean over the matrix (fraction); higher = more synergy
[1] = tested on: JURL-MK1 (Chronic Myelogenous Leukemia)
Method in brief: (§1)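 Cell lines grown in DMEM/F12 or RPMI with 10% FBS were plated in 1536-well plates and held 24 hours at 37°C, 5% CO2 before 72 hours of exposure to two-drug dose matrices, with DMSO typically at 0.2%. CellTiter-Glo 2.0 luminescence gave viability, which was converted to inhibition. Vehicle wells were set to 0 and blank wells to 1. Combination Emax is the second-highest inhibition in the matrix, and Bliss excess is the observed combination effect minus the expected EA + EB − EA·EB, where EA and EB are the single-agent effects.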

[2] = tested on: JJN-3 (Plasma Cell Myeloma)
Method in brief: as §1

[3] = tested on: GRANTA-519 (B-Cell Non-Hodgkin's Lymphoma)
Method in brief: as §1

[4] = tested on: IGROV-1 (Ovarian Carcinoma)
Method in brief: as §1

[5] = tested on: HT-3 (Cervical Carcinoma)
Method in brief: as §1

[6] = tested on: C2BBe1 (Colorectal Carcinoma)
Method in brief: as §1

[7] = tested on: BT-474 (Breast Carcinoma)
Method in brief: as §1

[8] = tested on: TOV-21G (Ovarian Carcinoma)
Method in brief: as §1

[9] = tested on: NCI-H1048 (Small Cell Lung Carcinoma)
Method in brief: as §1

[10] = tested on: A375 (Melanoma)
Method in brief: as §1

[11] = tested on: TK (B-Cell Non-Hodgkin's Lymphoma)
Method in brief: as §1

[12] = tested on: NCI-H1975 (Lung Adenocarcinoma)
Method in brief: as §1

[13] = tested on: NCI-H1648 (Lung Adenocarcinoma)
Method in brief: as §1

[14] = tested on: KNS-62 (Squamous Cell Lung Carcinoma)
Method in brief: as §1

[15] = tested on: NCI-H2009 (Lung Adenocarcinoma)
Method in brief: as §1

[16] = tested on: MRK-nu-1 (Breast Carcinoma)
Method in brief: as §1

[17] = tested on: CAL-85-1 (Breast Carcinoma)
Method in brief: as §1

[18] = tested on: L-363 (Plasma Cell Myeloma)
Method in brief: as §1

[19] = tested on: SK-MEL-24 (Melanoma)
Method in brief: as §1

SMILES | Bliss excess [1] | Bliss excess [2] | Bliss excess [3] | Bliss excess [4] | Bliss excess [5] | Bliss excess [6] | Bliss excess [7] | Bliss excess [8] | Bliss excess [9] | Bliss excess [10] | Bliss excess [11] | Bliss excess [12] | Bliss excess [13] | Bliss excess [14] | Bliss excess [15] | Bliss excess [16] | Bliss excess [17] | Bliss excess [18] | Bliss excess [19]
COc1nnc2ccc(N3CCC(c4ccc(OCCN5CCN(C)C(=O)[C@H]5C)cc4)CC3)nn12 [AZD5153] + CN(CC[C@H](CSC1=CC=CC=C1)NC2=C(C=C(C=C2)S(=O)(=O)NC(=O)C3=CC=C(C=C3)N4CCC(CC4)[C@H](C5=CC=CC=C5C6=CC=C(C=C6)Cl)O)S(=O)(=O)C(F)(F)F)CCO [AZD4320] (first compound max 1 µM, 7x7, partner max 1 µM) | -0.0137 | -0.0443 | 0.0352 | 0.0077 | 0.0347 | -0.0521 | 0.0941 | 0.0211 | 0.0831 | 0.0183 | -0.0154 | -0.012 |  |  |  |  |  |  | 
Cc1c2c(nn1C)CSCc1cc(n(C)n1)CSc1cc(c3ccccc3c1)OCCCc1c(C(=O)O)n(C)c3c-2c(Cl)ccc13 [AZD5991] + CC1(C)CCC(CN2CCN(c3ccc(C(=O)NS(=O)(=O)c4ccc(NCC5CCOCC5)c([N+](=O)[O-])c4)c(Oc4cnc5[nH]ccc5c4)c3)CC2)=C(c2ccc(Cl)cc2)C1 [Venetoclax] (first compound max 1 µM, 7x7, partner max 1 µM) | -0.0133 | 0.0514 | 0.0312 | -0.0326 | 0.0195 | 0.0031 | -0.0279 | -0.0115 | 0.049 | -0.0063 | 0.174 | -0.0053 | -0.0482 | -0.0426 | -0.0158 | 0.0139 | -0.0296 | 0.0519 | -0.0426
CCN(CCO)CCCOc1ccc2c(Nc3cc(CC(=O)Nc4cccc(F)c4)[nH]n3)ncnc2c1 [AZD2811] + O=C(c1cc(Cc2n[nH]c(=O)c3ccccc23)ccc1F)N1CCN(C(=O)C2CC2)CC1 [Olaparib] (first compound max 1 µM, 7x7, partner max 10 µM) | 0.073 | 0.0422 | 0.0274 | 0.0329 | 0.008 | -0.0112 | -0.0079 | 0.0352 | -0.0161 | 0.0039 | 0.0322 | 0.0034 | -0.0179 | -0.0171 | 0.0113 | -0.0037 | -0.0246 | 0.0025 | -0.0339
CN(C)CCCOc1ccc(-c2ccc3ncc4c(c3c2)n(C2CCOCC2)c(=O)n4C)cn1 [AZD0156] + CCN(CCO)CCCOc1ccc2c(Nc3cc(CC(=O)Nc4cccc(F)c4)[nH]n3)ncnc2c1 [AZD2811] (first compound max 1 µM, 7x7, partner max 1 µM) | 0.0538 | 0.09 | 0.0447 | -0.0527 | -0.039 | -0.0183 | -0.0423 | 0.0147 | -0.0053 | -0.0112 | 0.0495 | 0.0049 | -0.0327 | -0.0213 | -0.0224 | 0.0186 | -0.0409 | 0.0096 | -0.0401
CC1(C)CCC(CN2CCN(c3ccc(C(=O)NS(=O)(=O)c4ccc(NCC5CCOCC5)c([N+](=O)[O-])c4)c(Oc4cnc5[nH]ccc5c4)c3)CC2)=C(c2ccc(Cl)cc2)C1 [Venetoclax] + CCN(CCO)CCCOc1ccc2c(Nc3cc(CC(=O)Nc4cccc(F)c4)[nH]n3)ncnc2c1 [AZD2811] (first compound max 1 µM, 7x7, partner max 1 µM) | 0.0208 | 0.169 | 0.234 | -0.0091 | -0.0129 | -0.0368 | -0.0035 | 0.0149 | 0.103 | -0.0095 | 0.0051 | -0.0555 | -0.0235 | 0.0131 | -0.035 | 0.0341 | -0.032 | 0.0141 | -0.053
C[C@@H]1COCCN1c1cc(C2([S@](C)(=N)=O)CC2)nc(-c2ccnc3[nH]ccc23)n1 [AZD6738] + O=C(c1cc(Cc2n[nH]c(=O)c3ccccc23)ccc1F)N1CCN(C(=O)C2CC2)CC1 [Olaparib] (first compound max 10 µM, 7x7, partner max 10 µM) | -0.021 | -0.0548 | -0.0308 | -0.0169 | 0.0399 | 0.0009 | -0.0135 | 0.0035 | 0.0581 | 0.0238 | -0.0552 | -0.0088 | 0.0086 | 0.0026 | 0.0046 | 0.0457 | -0.0003 | -0.0892 | -0.0105
